# Reference: patent US10005792B2, “Aminoindane-, aminotetrahydronaphthalene- and aminobenzocyclobutane-derived PRMT5-inhibitors” (CTXT PTY LTD, priority 2014, dated 2018)
# Structures can show the parent of a compound that is named as a salt.
# Target: Full-length PRMT5 enzyme co-expressed with MEP50 (Homo sapiens (Human), UniProt O14744)
# Assay: Revised PRMT5 Biochemical Assay
# Settings: 1 μM histone H4 derived peptide substrate, 1 μM S-Adenosyl methionine, 4 hours at 37 degree Celsius, Transcreener EPIGEN fluorescence polarisation
# Method: Compounds of the invention may be tested for in vitro activity in the following assay: A histone H4 derived peptide is used as substrate (amino acid sequence: […]NH2). Full-length PRMT5 enzyme (NCBI Reference sequence NP-006100.2) was co-expressed with Hiss-MEP50 in insect cells and purified via Nickel immobilized metal affinity and gel filtration chromatography (“the enzyme”).
# The 6 μL reactions are run in Greiner brand black 384-well low volume assay plates. All reactions contained assay buffer (phosphate buffered saline, 0.01% (v/v) Tween-20, 0.01% (w/v) albumin from chicken egg white, 1 mM Dithiothreitol, 1 μM peptide substrate, 1 μM S-Adenosyl methionine, and 15 ng/reaction enzyme, with the enzyme being omitted from negative control reactions. Compounds were added in a volume of 100 nL from dilution series prepared in DMSO, positive and negative control reactions receiving the same volume DMSO without compound. The plates were sealed with adhesive seals and incubated for 4 hours at 37 degree Celsius. Reaction progress was measured using the Transcreener™ EPIGEN methyltransferase assay (BellBrook Labs, Madison, Wis.) as recommended by the manufacturer. To each reaction 2 μL detection mix were added, containing coupling enzymes, fluorescence polarisation tracer, and AMP antibody. Plates were incubated for 90 minutes before being read on a PerkinElmer EnVision™ plate reader in fluorescence polarisation mode. IC50 values were obtained from the raw readings by calculating percent inhibition (% I) for each reaction relative to controls on the same plate (% I=(I−CN)/(CP−CN) where CN/CP are the averages of the negative/positive reactions, respectively), then fitting the % I data vs. compound concentration [I] to % I=([…]) where A is the lower asymptote, B is the upper asymptote, C is the IC50 value, and D is the slope.
# Sequence of Full-length PRMT5 enzyme co-expressed with MEP50 (O14744 whole entry): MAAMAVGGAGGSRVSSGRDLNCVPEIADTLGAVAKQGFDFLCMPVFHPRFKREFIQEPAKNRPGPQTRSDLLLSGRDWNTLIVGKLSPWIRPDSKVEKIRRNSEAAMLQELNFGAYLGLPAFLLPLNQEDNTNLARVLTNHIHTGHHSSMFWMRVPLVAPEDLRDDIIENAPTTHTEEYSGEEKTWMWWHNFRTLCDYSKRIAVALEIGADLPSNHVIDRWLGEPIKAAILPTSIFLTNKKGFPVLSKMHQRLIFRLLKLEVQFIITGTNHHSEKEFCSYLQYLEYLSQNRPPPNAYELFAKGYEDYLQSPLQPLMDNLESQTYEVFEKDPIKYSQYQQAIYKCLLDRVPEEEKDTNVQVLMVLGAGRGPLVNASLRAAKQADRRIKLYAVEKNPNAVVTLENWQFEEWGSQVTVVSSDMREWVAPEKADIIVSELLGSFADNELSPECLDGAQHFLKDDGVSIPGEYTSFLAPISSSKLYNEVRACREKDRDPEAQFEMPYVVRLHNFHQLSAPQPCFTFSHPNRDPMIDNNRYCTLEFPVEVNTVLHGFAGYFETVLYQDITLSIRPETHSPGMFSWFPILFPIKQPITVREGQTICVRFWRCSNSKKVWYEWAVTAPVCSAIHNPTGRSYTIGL
# Sequence of Full-length PRMT5 enzyme co-expressed with MEP50 (Q9BQA1 whole entry partner): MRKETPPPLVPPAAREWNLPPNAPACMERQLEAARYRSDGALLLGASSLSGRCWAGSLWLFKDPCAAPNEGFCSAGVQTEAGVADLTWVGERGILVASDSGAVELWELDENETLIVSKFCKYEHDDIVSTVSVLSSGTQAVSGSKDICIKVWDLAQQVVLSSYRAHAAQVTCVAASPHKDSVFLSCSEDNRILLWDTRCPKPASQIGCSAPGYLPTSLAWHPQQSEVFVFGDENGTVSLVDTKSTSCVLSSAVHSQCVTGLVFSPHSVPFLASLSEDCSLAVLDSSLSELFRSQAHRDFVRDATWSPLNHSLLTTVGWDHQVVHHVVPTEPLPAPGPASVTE
row,Structure (SMILES),IC50 [nM]
1,"O=C(NCC(CO)CNC1Cc2ccccc2C1)c1ccc(C(=O)N2CCOCC2)cc1 (stereo not shown) [Compound 108, N-(3-((2,3-Dihydro-1H-inden-2-yl)amino)-2-(hydroxymethyl)propyl)-4-(morpholine-4-carbonyl)benzamide]",21200
2,"O=C(NCC(O)CNC1Cc2ccccc2C1)c1ccc(C(=O)N2CCCCC2)nc1 (racemic) [Compound 67, N-(3-((2,3-dihydro-1H-inden-2-yl)amino)-2-hydroxypropyl)-6-(piperidine-1-carbonyl)nicotinamide]",6870
3,"O=C(NCC(O)CNC1Cc2ccccc2C1)c1cnn(-c2cccnc2)c1 (stereo not shown) [Compound 46, N-(3-((2,3-dihydro-1H-inden-2-yl)amino)-2-hydroxypropyl)-1-(pyridin-3-yl)-1H-pyrazole-4-carboxamide]",4990
4,"COc1cc(C(=O)N2C3CCC2COC3)ccc1C(=O)NC[C@@H](O)CNC1Cc2ccccc2C1 [Compound 134, 4-(3-Oxa-8-azabicyclo[3.2.1]octane-8-carbonyl)-N-((S)-3-((2,3-dihydro-1H-inden-2-yl)amino)-2-hydroxypropyl)-2-methoxybenzamide hydrochloride]",238
5,"O=C(NC[C@@H](O)CNC1Cc2ccccc2C1)c1cccc2[nH]cnc12 [Compound 120, (S)-N-(3-((2,3-dihydro-1H-inden-2-yl)amino)-2-hydroxypropyl)-1H-benzo[d]imidazole-4-carboxamide]",13300
6,"CC(=O)N1CC(Nc2cc(C(=O)NC[C@@H](O)CNC3Cc4ccccc4C3)ccn2)C1 [Compound 110, (S)-2-((1-Acetylazetidin-3-yl)amino)-N-(3-((2,3-dihydro-1H-inden-2-yl)amino)-2-hydroxypropyl)isonicotinamide bis 2,2,2-trifluoroacetic acid salt]",166
7,"O=C(NC[C@H](O)CNC1Cc2ccccc2C1)c1ccc(C(=O)N2CCCCC2)nc1 [Compound 69, (R)-N-(3-((2,3-dihydro-1H-inden-2-yl)amino)-2-hydroxypropyl)-6-(piperidine-1-carbonyl)nicotinamide]",10000
8,"CN(C[C@H](O)CNC(=O)c1ccc(C(=O)N2CCOCC2)cc1)C1Cc2ccccc2C1 [Compound 112, (R)—N-(3-((2,3-Dihydro-1H-inden-2-yl)(methyl)amino)-2-hydroxypropyl)-4-(morpholine-4-carbonyl)benzamide]",9410
9,"O=C(NC[C@@H](O)CNC1Cc2ccccc2C1)c1ccccc1Cl [Compound 131, (S)-2-chloro-N-(3-((2,3-dihydro-1H-inden-2-yl)amino)-2-hydroxypropyl)benzamide]",4590
10,"O=C(NC[C@@H](O)CNC1Cc2ccccc2C1)c1ccccc1C(F)F [Compound 137, (S)-2-(difluoromethyl)-N-(3-((2,3-dihydro-1H-inden-2-yl)amino)-2-hydroxypropyl)benzamide]",47000
11,"O=C(NCC(O)CNC1Cc2ccccc2C1)c1ccnc(N2CCOCC2)c1 (stereo not shown) [Compound 47, N-(3-((2,3-dihydro-1H-inden-2-yl)amino)-2-hydroxypropyl)-2-morpholinoisonicotinamide]",11400
12,"COCc1ccccc1C(=O)NCC(O)CNC1Cc2ccccc2C1 (racemic) [Compound 79, N-(3-((2,3-dihydro-1H-inden-2-yl)amino)-2-hydroxypropyl)-2-(methoxymethyl)benzamide]",24000
13,"O=C(NC[C@@H](O)CNC1Cc2ccccc2C1)c1cccc(OC(F)F)c1 [Compound 119, (S)-3-(difluoromethoxy)-N-(3-((2,3-dihydro-1H-inden-2-yl)amino)-2-hydroxypropyl)benzamide]",5080
14,"CCOc1cc(C(=O)N2C3CCC2COC3)c(F)cc1C(=O)NC[C@@H](O)CNC1Cc2ccccc2C1 [Compound 141, 4-(3-oxa-8-azabicyclo[3.2.1]octane-8-carbonyl)-N—((S)-3-((2,3-dihydro-1H-inden-2-yl)amino)-2-hydroxypropyl)-2-ethoxy-5-fluorobenzamide]",695

# Further molecules by falling IC50, results first:
row,IC50 [nM],Structure (SMILES)
1,2530,"CC(=O)N1CCC(Nc2cccc(C(=O)NCC(O)CNC3Cc4ccccc4C3)n2)CC1 (stereo not shown) [Compound 57, 6-((1-Acetylpiperidin-4-yl)amino)-N-(3-((2,3-dihydro-1H-inden-2-yl)amino)-2-hydroxypropyl)picolinamide]"
2,1350,"O=C(NCC(O)CNC1Cc2ccccc2C1)c1ccc2c(c1)CCN(C(=O)CC1CC1)C2 (racemic) [Compound 94, 2-(2-cyclopropylacetyl)-N-(3-((2,3-dihydro-1H-inden-2-yl)amino)-2-hydroxypropyl)-1,2,3,4-tetrahydroisoquinoline-6-carboxamide]"
3,1300,"O=C(NC[C@@H](O)CNC1Cc2ccccc2C1)c1ccc(C(=O)N2CCS(=O)(=O)CC2)cc1 [Compound 65, (S)—N-(3-((2,3-dihydro-1H-inden-2-yl)amino)-2-hydroxypropyl)-4-(1,1-dioxidothiomorpholine-4-carbonyl)benzamide]"
4,1230,"O=C(NC[C@H](O)CNC1Cc2ccccc2C1)c1ccc(CC(=O)N2CCCC2)cc1 [Compound 91, (R)-N-(3-((2,3-dihydro-1H-inden-2-yl)amino)-2-hydroxypropyl)-4-(2-oxo-2-(pyrrolidin-1-yl)ethyl)benzamide]"
5,1100,"O=C(NC[C@@H](O)CNC1Cc2ccccc2C1)c1ccc(CC(=O)N2CCCC2)cc1 [Compound 100, (S)-N-(3-((2,3-dihydro-1H-inden-2-yl)amino)-2-hydroxypropyl)-4-(2-oxo-2-(pyrrolidin-1-yl)ethyl)benzamide]"
6,1100,"CC(=O)N1CCC(Nc2ccc(C(=O)NCC(O)CNC3Cc4ccccc4C3)cc2)CC1 (stereo not shown) [Compound 64, 4-((1-Acetylpiperidin-4-yl)amino)-N-(3-((2,3-dihydro-1H-inden-2-yl)amino)-2-hydroxypropyl) benzamide]"
7,771,"CC(=O)N1CC2CCC(C1)C2Nc1cccc(C(=O)NC[C@@H](O)CNC2Cc3ccccc3C2)c1 (stereo partly drawn) [Compound 139, 3-((3-Acetyl-3-azabicyclo[3.2.1]octan-8-yl)amino)-N—((S)-3-((2,3-dihydro-1H-inden-2-yl)amino)-2-hydroxypropyl)benzamide]"
8,709,"O=C(NCC(O)CNC1Cc2ccccc2C1)c1ccnc(OC2CCNCC2)c1 (stereo not shown) [Compound 51, N-(3-((2,3-dihydro-1H-inden-2-yl)amino)-2-hydroxypropyl)-2-(piperidin-4-yloxy)isonicotinamide]"
9,682,"COC1CCN(C(=O)c2ccc(C(=O)NC[C@@H](O)CNC3Cc4ccccc4C3)cc2)CC1 [Compound 86, (S)-N-(3-((2,3-dihydro-1H-inden-2-yl)amino)-2-hydroxypropyl)-4-(4-methoxypiperidine-1-carbonyl)benzamide]"
10,630,"O=C(NC[C@@H](O)CNC1Cc2ccccc2C1)c1ccc(C(=O)N2CCC(O)CC2)cc1 [Compound 60, (S)-N-(3-((2,3-dihydro-1H-inden-2-yl)amino)-2-hydroxypropyl)-4-(4-hydroxypiperidine-1-carbonyl)benzamide]"
11,585,"CC(=O)N1CCN(C(=O)c2ccc(C(=O)NCC(O)CNC3Cc4ccccc4C3)cc2)CC1 (racemic) [Compound 84, 4-(4-acetylpiperazine-1-carbonyl)-N-(3-((2,3-dihydro-1H-inden-2-yl)amino)-2-hydroxypropyl)benzamide]"
12,514,"O=C(NC[C@@H](O)CNC1Cc2ccccc2C1)c1ccc(C(=O)N2CCOCC23CCC3)cc1 [Compound 104, (S)-N-(3-((2,3-dihydro-1H-inden-2-yl)amino)-2-hydroxypropyl)-4-(8-oxa-5-azaspiro[3.5]nonane-5-carbonyl)benzamide]"
13,482,"CC1(C)COCCN1C(=O)c1ccc(C(=O)NC[C@@H](O)CNC2Cc3ccccc3C2)cc1 [Compound 102, (S)-N-(3-((2,3-dihydro-1H-inden-2-yl)amino)-2-hydroxypropyl)-4-(3,3-dimethylmorpholine-4-carbonyl)benzamide]"
14,466,"CC(=O)N1CCC(Oc2cc(C(=O)NCC(O)CNC3Cc4ccccc4C3)ccn2)CC1 (stereo not shown) [Compound 50, 2-((1-Acetylpiperidin-4-yl)oxy)-N-(3-((2,3-dihydro-1H-inden-2-yl)amino)-2-hydroxypropyl)isonicotinamide]"
15,457,"C[C@@H]1COC[C@@H](C)N1C(=O)c1ccc(C(=O)NCC(O)CNC2Cc3ccccc3C2)cc1 (mixture of isomers) [Compound 101, N-(3-((2,3-dihydro-1H-inden-2-yl)amino)-2-hydroxypropyl)-4-((3R,5R)-3,5-dimethylmorpholine-4-carbonyl)benzamide]"
16,373,"O=C(NCC(O)CNC1Cc2ccccc2C1)c1ccnc(NC2CCCC2)c1 (stereo not shown) [Compound 44, 2-(cyclopentylamino)-N-(3-((2,3-dihydro-1H-inden-2-yl)amino)-2-hydroxypropyl)isonicotinamide]"
17,276,"CCOc1cc(-c2nnc(C)o2)ccc1C(=O)NC[C@@H](O)CNC1Cc2ccccc2C1 [Compound 116, (S)-N-(3-((2,3-dihydro-1H-inden-2-yl)amino)-2-hydroxypropyl)-2-ethoxy-4-(5-methyl-1,3,4-oxadiazol-2-yl)benzamide]"
